Patent publication US9951372B2, “Compounds and methods for assaying redox state of metabolically active cells and methods for measuring NAD(P)/NAD(P)H” (PROMEGA CORPORATION, priority 2011, dated 2018)
Like-named read-outs stand apart in the source and are kept apart here.

Legend:
Type in all cases: biochemical
Clostridium diaphorase = test system: Clostridium diaphorase
rat diaphorase [1] = test system: rat diaphorase
rat diaphorase [2] = test system: rat diaphorase; remark: listed apart in the source
rat diaphorase [3] = test system: rat diaphorase; remark: listed apart in the source
rat diaphorase [4] = conditions: 20 μM compound, 40 min
rat diaphorase [5] = conditions: 20 μM compound
[6] = reaction time 0 min, 20 μM compound, 10 μM NADH
[7] = 20 μM compound, 10 μM NADH, 0.5 u/ml Clostridium diaphorase, 70 min
[8] = 20 μM compound, no NADH, 0.5 u/ml Clostridium diaphorase, 70 min
[9] = signal with NADH / without NADH, Clostridium diaphorase
[10] = ~1 min after LDR with 500 μM menadione, 20 μM compound, 10 μM NADH
[11] = ~1 min after LDR, 20 μM compound, 10 μM NADH
[12] = ~6 min after LDR with 500 μM menadione, 20 μM compound, 10 μM NADH
[13] = ~6 min after LDR, 20 μM compound, 10 μM NADH
[14] = NADH no, diaphorase yes (5 u/ml rat)
[15] = NADH yes (10 μM), diaphorase no
[16] = NADH yes (10 μM), diaphorase yes (5 u/ml rat), 20 min
[17] = 20 μM compound, 10 μM NADH, 5 u/ml rat diaphorase, 70 min
[18] = 20 μM compound, no NADH, 5 u/ml rat diaphorase, 70 min
[19] = signal with NADH / without NADH, rat diaphorase

For `CC1=C(C)C(=O)C(C(C)(C)CC(=O)N(C)c2ccc(COC(=O)Nc3ccc4nc(C5=N[C@@H](C(=O)O)CS5)sc4c3)cc2)=C(C)C1=O` [PBI 4550, Quinone trimethyllock-N-methyl-luciferin carbamate], the “Avg RLU With NADH” value (Clostridium diaphorase) was 25644 RLU, the “Avg RLU Without NADH” value (Clostridium diaphorase) was 2597 RLU and the S/B (Clostridium diaphorase) was 10. For the same compound, the “First Reading With menadione” value (rat diaphorase [1]) was 1786 RLU, the “First Reading Without menadione” value (rat diaphorase [1]) was 16495 RLU and the “Last Reading With menadione” value (rat diaphorase [1]) was 2393 RLU. The “Last Reading Without menadione” value (rat diaphorase [1]) was 100603 RLU, the “Avg RLU With NADH” value (rat diaphorase [2]) was 62987 RLU and the “Avg RLU Without NADH” value (rat diaphorase [2]) was 2337 RLU. The S/B (rat diaphorase [2]) was 27.

In the case of `CC1=C(C)C(=O)C(C(C)(C)CC(=O)N(C)CC(C)(C)CN(C)C(=O)Oc2ccc3nc(C4=N[C@@H](C(=O)O)CS4)sc3c2)=C(C)C1=O` [PBI 4565, Quinone trimethyllock-N,N′,2,2-tetramethylpropanediamine carbamate luciferin], the “Avg RLU” value (rat diaphorase [3]; [6]) was 1294 RLU, the “Avg RLU” value (rat diaphorase [3]; reaction time 2 min) was 41615 RLU and the “Avg RLU” value (rat diaphorase [3]; reaction time 5 min) was 69945 RLU. The “Avg RLU” value (rat diaphorase [3]; reaction time 10 min) was 117067 RLU, the “Avg RLU” value (rat diaphorase [3]; reaction time 15 min) was 154427 RLU and the “Avg RLU” value (rat diaphorase [3]; reaction time 25 min) was 252212 RLU. For the same compound, the “Avg RLU” value (rat diaphorase [3]; reaction time 30 min) was 262123 RLU, the “Avg RLU” value (rat diaphorase [3]; reaction time 40 min) was 278567 RLU and the “Avg RLU” value (rat diaphorase [3]; reaction time 50 min) was 328037 RLU. The “Avg RLU” value (rat diaphorase [3]; reaction time 60 min) was 330433 RLU, the “Avg RLU With NADH” value (Clostridium diaphorase; [7]) was 18559 RLU and the “Avg RLU Without NADH” value (Clostridium diaphorase; [8]) was 646 RLU. For the same compound, the S/B (Clostridium diaphorase; [9]) was 29, the “Avg RLU” value (rat diaphorase [4]; NADH 0 μM) was 967 RLU and the “Avg RLU” value (rat diaphorase [4]; NADH 0.006 μM) was 1120 RLU. For the same compound, the “Avg RLU” value (rat diaphorase [4]; NADH 0.012 μM) was 1412 RLU, the “Avg RLU” value (rat diaphorase [4]; NADH 0.024 μM) was 2300 RLU and the “Avg RLU” value (rat diaphorase [4]; NADH 0.049 μM) was 3065 RLU. The “Avg RLU” value (rat diaphorase [4]; NADH 0.098 μM) was 4931 RLU, the “Avg RLU” value (rat diaphorase [4]; NADH 0.195 μM) was 8863 RLU and the “Avg RLU” value (rat diaphorase [4]; NADH 0.39 μM) was 16200 RLU. For the same compound, the “Avg RLU” value (rat diaphorase [4]; NADH 0.78 μM) was 13828 RLU, the “Avg RLU” value (rat diaphorase [4]; NADH 1.56 μM) was 29258 RLU and the “Avg RLU” value (rat diaphorase [4]; NADH 3.125 μM) was 63621 RLU. The “Avg RLU” value (rat diaphorase [4]; NADH 6.25 μM) was 128719 RLU, the “Avg RLU” value (rat diaphorase [4]; NADH 12.5 μM) was 258360 RLU and the “Avg RLU” value (rat diaphorase [4]; NADH 25 μM) was 294331 RLU. The “Avg RLU” value (rat diaphorase [4]; NADH 50 μM) was 287306 RLU, the “Avg RLU” value (rat diaphorase [4]; NADH 100 μM) was 306242 RLU and the “First Reading With menadione” value (rat diaphorase [1]; [10]) was 324 RLU. For the same compound, the “First Reading Without menadione” value (rat diaphorase [1]; [11]) was 564 RLU, the “Last Reading With menadione” value (rat diaphorase [1]; [12]) was 446 RLU and the “Last Reading Without menadione” value (rat diaphorase [1]; [13]) was 4407 RLU. For the same compound, the “Avg RLU” value (rat diaphorase [5]; NADH no, diaphorase no) was 801 RLU, the “Avg RLU” value (rat diaphorase [5]; [14]) was 860 RLU and the “Avg RLU” value (rat diaphorase [5]; [15]) was 891 RLU. For the same compound, the “Avg RLU” value (rat diaphorase [5]; [16]) was 98349 RLU, the “Avg RLU With NADH” value (rat diaphorase [2]; [17]) was 48903 RLU and the “Avg RLU Without NADH” value (rat diaphorase [2]; [18]) was 479 RLU. For the same compound, the S/B (rat diaphorase [2]; [19]) was 102.

In the case of `CC1=C(C)C(=O)C(C(C)(C)CC(=O)N(C)CCN(C)C(=O)Oc2ccc3nc(C4=N[C@@H](C(=O)O)CS4)sc3c2)=C(C)C1=O` [PBI 4312, quinone trimethyllock-C2-diamine luciferin], the “Avg RLU” value (rat diaphorase [3]; [6]) was 7809 RLU, the “Avg RLU” value (rat diaphorase [3]; reaction time 2 min) was 150745 RLU and the “Avg RLU” value (rat diaphorase [3]; reaction time 5 min) was 206822 RLU. The “Avg RLU” value (rat diaphorase [3]; reaction time 10 min) was 305968 RLU, the “Avg RLU” value (rat diaphorase [3]; reaction time 15 min) was 366592 RLU and the “Avg RLU” value (rat diaphorase [3]; reaction time 25 min) was 499283 RLU. The “Avg RLU” value (rat diaphorase [3]; reaction time 30 min) was 529063 RLU, the “Avg RLU” value (rat diaphorase [3]; reaction time 40 min) was 544475 RLU and the “Avg RLU” value (rat diaphorase [3]; reaction time 50 min) was 599165 RLU. For the same compound, the “Avg RLU” value (rat diaphorase [3]; reaction time 60 min) was 571954 RLU, the “Avg RLU With NADH” value (Clostridium diaphorase; [7]) was 29068 RLU and the “Avg RLU Without NADH” value (Clostridium diaphorase; [8]) was 5311 RLU. For the same compound, the S/B (Clostridium diaphorase; [9]) was 5.5, the “Avg RLU” value (rat diaphorase [4]; NADH 0 μM) was 5410 RLU and the “Avg RLU” value (rat diaphorase [4]; NADH 0.006 μM) was 6447 RLU. The “Avg RLU” value (rat diaphorase [4]; NADH 0.012 μM) was 7075 RLU, the “Avg RLU” value (rat diaphorase [4]; NADH 0.024 μM) was 8864 RLU and the “Avg RLU” value (rat diaphorase [4]; NADH 0.049 μM) was 11190 RLU. For the same compound, the “Avg RLU” value (rat diaphorase [4]; NADH 0.098 μM) was 20126 RLU, the “Avg RLU” value (rat diaphorase [4]; NADH 0.195 μM) was 27871 RLU and the “Avg RLU” value (rat diaphorase [4]; NADH 0.39 μM) was 43659 RLU. For the same compound, the “Avg RLU” value (rat diaphorase [4]; NADH 0.78 μM) was 33801 RLU, the “Avg RLU” value (rat diaphorase [4]; NADH 1.56 μM) was 60043 RLU and the “Avg RLU” value (rat diaphorase [4]; NADH 3.125 μM) was 119311 RLU. For the same compound, the “Avg RLU” value (rat diaphorase [4]; NADH 6.25 μM) was 235674 RLU, the “Avg RLU” value (rat diaphorase [4]; NADH 12.5 μM) was 465875 RLU and the “Avg RLU” value (rat diaphorase [4]; NADH 25 μM) was 608014 RLU. The “Avg RLU” value (rat diaphorase [4]; NADH 50 μM) was 687602 RLU, the “Avg RLU” value (rat diaphorase [4]; NADH 100 μM) was 663944 RLU and the “First Reading With menadione” value (rat diaphorase [1]; [10]) was 3527 RLU. For the same compound, the “First Reading Without menadione” value (rat diaphorase [1]; [11]) was 5900 RLU, the “Last Reading With menadione” value (rat diaphorase [1]; [12]) was 5062 RLU and the “Last Reading Without menadione” value (rat diaphorase [1]; [13]) was 39855 RLU. The “Avg RLU” value (rat diaphorase [5]; NADH no, diaphorase no) was 4262 RLU, the “Avg RLU” value (rat diaphorase [5]; [14]) was 3910 RLU and the “Avg RLU” value (rat diaphorase [5]; [15]) was 3918 RLU. For the same compound, the “Avg RLU” value (rat diaphorase [5]; [16]) was 197017 RLU, the “Avg RLU With NADH” value (rat diaphorase [2]; [17]) was 120633 RLU and the “Avg RLU Without NADH” value (rat diaphorase [2]; [18]) was 4981 RLU. It also gave a S/B (rat diaphorase [2]; [19]) of 24.
